This passage reports IC50 results from patent US9586951B2 (FUJIFILM Corporation, priority 2013, dated 2017).

T1 sequence (Q13315 whole entry): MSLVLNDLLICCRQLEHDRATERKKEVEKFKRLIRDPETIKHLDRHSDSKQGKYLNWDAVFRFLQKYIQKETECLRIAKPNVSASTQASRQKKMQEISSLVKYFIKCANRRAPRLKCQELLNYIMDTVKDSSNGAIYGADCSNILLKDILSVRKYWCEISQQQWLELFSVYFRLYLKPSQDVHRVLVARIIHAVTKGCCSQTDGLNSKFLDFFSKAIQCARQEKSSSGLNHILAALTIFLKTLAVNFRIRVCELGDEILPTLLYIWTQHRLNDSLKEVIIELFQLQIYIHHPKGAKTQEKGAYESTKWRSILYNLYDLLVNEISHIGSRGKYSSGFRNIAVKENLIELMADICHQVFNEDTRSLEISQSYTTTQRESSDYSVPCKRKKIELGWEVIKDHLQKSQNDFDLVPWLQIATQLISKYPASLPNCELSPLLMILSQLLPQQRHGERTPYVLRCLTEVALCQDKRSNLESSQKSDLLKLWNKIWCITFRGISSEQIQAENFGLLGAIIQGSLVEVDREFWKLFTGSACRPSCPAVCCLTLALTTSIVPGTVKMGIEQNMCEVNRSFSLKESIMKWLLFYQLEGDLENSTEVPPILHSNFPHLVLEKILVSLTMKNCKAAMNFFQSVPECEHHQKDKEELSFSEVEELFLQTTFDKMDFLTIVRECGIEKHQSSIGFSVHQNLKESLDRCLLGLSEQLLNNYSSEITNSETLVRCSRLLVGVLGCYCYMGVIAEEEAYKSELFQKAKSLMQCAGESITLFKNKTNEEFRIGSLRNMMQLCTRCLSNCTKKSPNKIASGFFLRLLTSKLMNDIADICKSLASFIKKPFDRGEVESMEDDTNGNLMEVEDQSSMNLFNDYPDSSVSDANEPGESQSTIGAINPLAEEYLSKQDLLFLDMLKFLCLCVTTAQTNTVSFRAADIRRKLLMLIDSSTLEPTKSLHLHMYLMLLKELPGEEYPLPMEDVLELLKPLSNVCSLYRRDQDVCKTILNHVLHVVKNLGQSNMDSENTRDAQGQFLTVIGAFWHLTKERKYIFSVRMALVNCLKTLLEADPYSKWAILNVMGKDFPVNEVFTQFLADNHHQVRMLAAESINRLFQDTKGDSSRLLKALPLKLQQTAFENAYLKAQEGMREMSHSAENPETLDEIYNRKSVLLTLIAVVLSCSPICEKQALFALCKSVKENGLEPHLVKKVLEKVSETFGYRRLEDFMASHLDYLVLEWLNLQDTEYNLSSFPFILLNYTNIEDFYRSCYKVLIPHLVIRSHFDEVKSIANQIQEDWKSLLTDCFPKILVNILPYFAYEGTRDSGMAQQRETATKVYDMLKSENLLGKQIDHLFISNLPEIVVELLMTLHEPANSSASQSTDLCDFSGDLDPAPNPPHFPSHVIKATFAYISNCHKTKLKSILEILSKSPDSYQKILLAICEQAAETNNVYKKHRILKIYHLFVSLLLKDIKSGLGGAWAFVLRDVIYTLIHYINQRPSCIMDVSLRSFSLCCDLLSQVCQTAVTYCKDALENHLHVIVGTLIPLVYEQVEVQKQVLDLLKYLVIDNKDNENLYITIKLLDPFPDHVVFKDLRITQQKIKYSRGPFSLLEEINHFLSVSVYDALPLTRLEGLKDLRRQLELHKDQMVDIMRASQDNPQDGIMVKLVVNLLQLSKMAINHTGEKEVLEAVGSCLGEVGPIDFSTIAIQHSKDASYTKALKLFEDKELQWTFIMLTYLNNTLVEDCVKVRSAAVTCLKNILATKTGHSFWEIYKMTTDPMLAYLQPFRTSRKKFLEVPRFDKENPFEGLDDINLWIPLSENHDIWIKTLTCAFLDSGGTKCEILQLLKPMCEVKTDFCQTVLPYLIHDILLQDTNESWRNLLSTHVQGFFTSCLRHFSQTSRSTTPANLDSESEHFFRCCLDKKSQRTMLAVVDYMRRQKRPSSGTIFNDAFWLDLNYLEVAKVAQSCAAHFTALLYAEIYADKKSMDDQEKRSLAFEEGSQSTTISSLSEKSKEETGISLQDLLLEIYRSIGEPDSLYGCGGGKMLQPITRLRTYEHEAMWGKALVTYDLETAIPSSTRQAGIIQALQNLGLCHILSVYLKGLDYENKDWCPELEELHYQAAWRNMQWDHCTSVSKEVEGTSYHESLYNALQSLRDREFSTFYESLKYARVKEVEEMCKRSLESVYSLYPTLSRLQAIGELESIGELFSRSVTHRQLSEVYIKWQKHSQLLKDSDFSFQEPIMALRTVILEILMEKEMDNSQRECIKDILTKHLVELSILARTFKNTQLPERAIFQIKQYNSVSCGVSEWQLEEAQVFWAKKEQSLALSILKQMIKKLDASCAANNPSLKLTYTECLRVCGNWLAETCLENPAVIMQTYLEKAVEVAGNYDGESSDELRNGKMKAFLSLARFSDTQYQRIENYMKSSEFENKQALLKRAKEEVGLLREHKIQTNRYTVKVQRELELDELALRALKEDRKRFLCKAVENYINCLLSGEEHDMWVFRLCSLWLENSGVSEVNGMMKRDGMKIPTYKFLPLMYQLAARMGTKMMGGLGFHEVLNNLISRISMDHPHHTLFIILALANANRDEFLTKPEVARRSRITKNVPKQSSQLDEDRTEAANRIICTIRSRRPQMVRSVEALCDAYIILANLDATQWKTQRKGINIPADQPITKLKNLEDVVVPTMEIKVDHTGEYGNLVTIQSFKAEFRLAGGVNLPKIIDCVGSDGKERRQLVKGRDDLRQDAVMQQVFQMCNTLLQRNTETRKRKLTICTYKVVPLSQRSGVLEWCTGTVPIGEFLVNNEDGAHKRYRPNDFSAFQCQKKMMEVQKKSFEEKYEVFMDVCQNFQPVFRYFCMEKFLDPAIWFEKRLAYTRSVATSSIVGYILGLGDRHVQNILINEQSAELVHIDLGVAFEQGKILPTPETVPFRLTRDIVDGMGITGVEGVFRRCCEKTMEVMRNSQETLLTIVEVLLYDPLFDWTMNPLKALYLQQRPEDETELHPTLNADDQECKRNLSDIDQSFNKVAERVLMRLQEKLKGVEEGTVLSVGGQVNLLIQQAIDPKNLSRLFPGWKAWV

This experiment addresses T1, ATM (Homo sapiens, UniProt Q13315).
T1 construct: detecting phosphorylation of Chk2 in a human non-small cell lung cancer cell line NCI-H460 (ATCC company); host or cells: NCI-H460 human non-small cell lung cancer cells
In words: ATM inhibition test (phosphorylation of Chk2 generated by ionizing radiation, AlphaScreen SureFire). Type of experiment: cell-based. Conditions: phosphorylated Chk2 in NCI-H460 cells, ionizing radiation 8Gy, 1 hour after test compound treatment; read-out: ATM inhibitory activity. The gist of the method:
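Human NCI-H460 lung cancer cells were treated with compound for 1 h, then irradiated at 8Gy and incubated 1 h at 37° C. Phospho-Chk2 was quantified by AlphaScreen SureFire; inhibition % was normalised between irradiated untreated and non-irradiated untreated wells.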
For `O=c1cc(N2CCOCC2)cc(-c2cccc3c2Sc2ccc(NCc4ccc(Cl)nc4)cc2S3)[nH]1` [Example 1-44-2, 6-(7-(((6-Chloropyridin-3-yl)methyl)amino)thianthren-1-yl)-4-morpholino pyridin-2(1H)-one], the IC50 was below 100 nM.

In the case of `CCOC(=O)C(C)Nc1ccc2c(c1)Cc1cccc(-c3cc(N4CCOCC4)cc(=O)[nH]3)c1O2` (centres unmarked) [Example 2-14-72, Ethyl 2-((5-(4-morpholino-6-oxo-1,6-dihydropyridin-2-yl)-9H-xanthen-2-yl)amino) propanoate], the IC50 lay within 100 to 500 nM. For `O=c1cc(N2CCOCC2)cc(-c2cccc3c2Oc2ccc(NCc4cncc(-n5cccn5)c4)cc2C3)[nH]1` [Example 2-2-55, 6-(7-(((5-(1H-Pyrazol-1-yl)pyridin-3-yl)methyl)amino)-9H-xanthen-4-yl)-4-morpholino pyridin-2 (1H)-one] the value was 100 to 500 nM. As for `N#CCC(CN1CCOCC1)Nc1ccc2c(c1)Sc1cccc(-c3cc(N4CCOCC4)cc(=O)[nH]3)c1S2` (centres unmarked) [Example 9-2, 4-Morpholino-3-((6-(4-morpholino-6-oxo-1,6-dihydropyridin-2-yl)thianthren-2-yl)amino)butanenitrile], the IC50 is 100 to 500 nM. Consider `Cc1cccc(C(Nc2ccc3c(c2)Sc2cccc(-c4cc(N5CCOCC5)cc(=O)[nH]4)c2S3)C2CCCNC2)n1` (centres unmarked) [Example 1-20-13, 6-(7-(((6-Methylpyridin-2-yl)(piperidin-3-yl)methyl)amino)thianthren-1-yl)-4-morpholino pyridin-2(1H)-one], for which the IC50 lay in the range of 500 to 2000 nM. In the case of `COc1cncc(C(C)Nc2ccc3c(c2)Cc2cccc(-c4cc(N5CCOCC5)cc(=O)[nH]4)c2O3)n1` (centres unmarked) [Example 2-14-57, 6-(7-((1-(6-Methoxypyrazin-2-yl)ethyl)amino)-9H-xanthen-4-yl)-4-morpholino pyridin-2(1H)-one], the IC50 was 100 to 500 nM. On to `COc1cncc(C(C)Nc2ccc3c(c2)Sc2cccc(-c4cc(N5CCOCC5)cc(=O)[nH]4)c2S3)c1` (single isomer, unassigned) [Example 1-12-145-2, 6-(7-((1-(5-methoxypyridin-3-yl)ethyl)amino)thianthren-1-yl)-4-morpholinopyridin-2(1H)-one], for which the IC50 was below 100 nM. For the compound `Cc1ccc(C(Nc2ccc3c(c2)Sc2cccc(-c4cc(N5CCOCC5)cc(=O)[nH]4)c2S3)C2CNCCO2)nc1` (single isomer, unassigned) [Example 1-55-1, 6-(7-(((5-methylpyridin-2-yl)(morpholin-2-yl)methyl)amino)thianthren-1-yl)-4-morpholinopyridin-2(1H)-one], the IC50 was below 100 nM.

Consider `Cc1ccc(C(C[C@@H]2CCCN2)Nc2ccc3c(c2)Sc2cccc(-c4cc(N5CCOCC5)cc(=O)[nH]4)c2S3)nc1` (single isomer, unassigned) [Example 12-1], for which the IC50 lay within 100 to 500 nM. Consider `CC(CN1CCOCC1)C(=O)Nc1ccc2c(c1)Sc1cccc(-c3cc(N4CCOCC4)cc(=O)[nH]3)c1S2` (centres unmarked) [Example 8-3, 2-Methyl-3-morpholino-N-(6-(4-morpholino-6-oxo-1,6-dihydropyridin-2-yl)thianthren-2-yl)propanamide], for which the IC50 fell in the range of 500 to 2000 nM. Take `Nc1ccc2c(c1)CCc1cccc(-c3cc(N4CCOCC4)cc(=O)[nH]3)c1O2` [Example 2-50, 6-(8-Amino-10,11-dihydrodibenz[b,f]oxepin-4-yl)-4-morpholinopyridin-2(1H)-one]: the IC50 was 500 to 2000 nM. As for `O=c1cc(N2CCOCC2)cc(-c2cccc3c2Oc2ccc(NC4CCN(Cc5cncnc5)CC4)cc2C3)[nH]1` [Example 2-28-4, 4-Morpholino-6-(7-((1-(pyrimidin-5-ylmethyl)piperidin-4-yl)amino)-9H-xanthen-4-yl)pyridin-2 (1H)-one], the IC50 fell in the range of 100 to 500 nM. For the compound `CC(Nc1ccc2c(c1)Cc1cccc(-c3cc(N4CCOCC4)cc(=O)[nH]3)c1O2)c1cc(C#N)ncn1` (centres unmarked) [Example 2-14-60, 6-(1-((5-(4-Morpholino-6-oxo-1,6-dihydropyridin-2-yl)-9H-xanthen-2-yl)amino)ethyl)pyrimidine-4-carbonitrile], the IC50 is 100 to 500 nM. As for `O=c1cc(N2CCOCC2)cc(-c2cccc3c2Oc2ccc(NCc4ccccc4)cc2C3)[nH]1` [Example 2-14-3, 6-(7-(Benzylamino)-9H-xanthen-4-yl)-4-morpholino pyridin-2(1H)-one], the IC50 was in the range of 100 to 500 nM.

`O=c1cc(N2CCOCC2)cc(-c2cccc3c2Oc2ccc(NC4CCN(CCCc5ccccc5)CC4)cc2C3)[nH]1` [Example 2-28-34, 4-Morpholino-6-(7-((1-(3-phenylpropyl)piperidin-4-yl)amino)-9H-xanthen-4-yl) pyridin-2(1H)-one]: the IC50 fell in the range of 500 to 2000 nM.

For `COCC(CN1CCCCC1)Nc1ccc2c(c1)Sc1cccc(-c3cc(N4CCOCC4)cc(=O)[nH]3)c1S2` (centres unmarked) [Example 1-17-2, 6-(7-((1-Methoxy-3-(piperidin-1-yl)propan-2-yl)amino)thianthren-1-yl)-4-morpholinopyridin-2(1H)-one], the IC50 is 100 to 500 nM. On to `Cc1cccc(C(CO)Nc2ccc3c(c2)Sc2cccc(-c4cc(N5CCOCC5)cc(=O)[nH]4)c2S3)n1` (single isomer, unassigned) [Example 1-12-140-1, 6-(7-((2-hydroxy-1-(6-methylpyridin-2-yl)ethyl)amino)thianthren-1-yl)-4-morpholinopyridin-2(1H)-one], for which the IC50 lay within 100 to 500 nM.

As for `Cc1cccc(C(CCN2CCCCC2)Nc2ccc3c(c2)Sc2cccc(-c4cc(N5CCOCC5)cc(=O)[nH]4)c2S3)n1` (centres unmarked) [Example 1-34-3, 6-(7-((1-(6-Methylpyridin-2-yl)-3-(piperidin-1-yl)propyl)amino)thianthren-1-yl)-4-morpholino pyridin-2(1H)-one], the IC50 is below 100 nM.

`O=c1cc(N2CCOCC2)cc(-c2cccc3c2Oc2ccc(NCc4cncc(-n5cncn5)c4)cc2C3)[nH]1` [Example 2-2-59, 6-(7-(((5-(1H-1,2,4-Triazol-1-yl)pyridin-3-yl)methyl)amino)-9H-xanthen-4-yl)-4-morpholino pyridin-2(1H)-one]: the IC50 is 100 to 500 nM. For the compound `CC(CNc1ccc2c(c1)Sc1cccc(-c3cc(N4CCOCC4)cc(=O)[nH]3)c1S2)CN1CCOCC1` (centres unmarked) [Example 8-4, 6-(7-((2-Methyl-3-morpholinopropyl)amino)thianthren-1-yl)-4-morpholinopyridin-2(1H)-one], the IC50 is 100 to 500 nM. On to `CCNc1cncc(CNc2ccc3c(c2)Cc2cccc(-c4cc(N5CCOCC5)cc(=O)[nH]4)c2O3)c1` [Example 2-6-1, 6-(7-(((5-(ethylamino)pyridin-3-yl)methyl)amino)-9H-xanthen-4-yl)-4-morpholinopyridin-2(1H)-one], for which the IC50 is 100 to 500 nM. For `CNc1ncccc1CNc1ccc2c(c1)Sc1cccc(-c3cc(N4CCOCC4)cc(=O)[nH]3)c1O2` [Example 4-8-21, 6-(8-(((2-(Methylamino)pyridin-3-yl)methyl)amino)phenoxathiin-4-yl)-4-morpholino pyridin-2(1H)-one] the value was 100 to 500 nM; for `CNc1ccc(CN2CCC(Nc3ccc4c(c3)Cc3cccc(-c5cc(N6CCOCC6)cc(=O)[nH]5)c3O4)CC2)cn1` [Example 2-28-8, 6-(7-((1-((6-(Methylamino)pyridin-3-yl)methyl)piperidin-4-yl)amino)-9H-xanthen-4-yl)-4-morpholino pyridin-2(1H)-one], 100 to 500 nM; for `COCCN(CCOC)C[C@@H](COC)Nc1ccc2c(c1)Sc1cccc(-c3cc(N4CCOCC4)cc(=O)[nH]3)c1S2` [Example 1-46-3, (S)-6-(7-((1-(bis(2-methoxyethyl)amino)-3-methoxypropan-2-yl)amino)thianthren-1-yl)-4-morpholinopyridin-2(1H)-one], 100 to 500 nM. For `O=C(Nc1ccc2c(c1)Cc1cccc(-c3cc(N4CCOCC4)cc(=O)[nH]3)c1O2)c1cc(Br)ccn1` [Example 2-24, 4-bromo-N-(5-(4-morpholino-6-oxo-1,6-dihydropyridin-2-yl)-9H-xanthen-2-yl)picolinamide] the value was 500 to 2000 nM; for `CC(Nc1ccc2c(c1)Sc1cccc(-c3cc(N4CCOCC4)cc(=O)[nH]3)c1S2)c1ncccn1` (centres unmarked) [Example 1-12-68, 4-Morpholino-6-(7-((1-(pyrimidin-2-yl)ethyl)amino)thianthren-1-yl)pyridin-2 (1H)-one], 100 to 500 nM; for `O=c1cc(N2CCOCC2)cc(-c2cccc3c2Sc2ccc(NCCCc4cccnc4)cc2S3)[nH]1` [Example 1-12-27, 4-Morpholino-6-(7-((3-(pyridin-3-yl)propyl)amino)thianthren-1-yl)pyridin-2(1H)-one], 500 to 2000 nM. For `O=C(CN1CCOCC1)Nc1ccc2c(c1)Sc1cccc(-c3cc(N4CCOCC4)cc(=O)[nH]3)c1S2` [Example 1-7-4, 2-Morpholino-N-(6-(4-morpholino-6-oxo-1,6-dihydropyridin-2-yl)thianthren-2-yl)acetamide] the value was 100 to 500 nM. For `CC(Nc1ccc2c(c1)Sc1cccc(-c3cc(N4CCOCC4)cc(=O)[nH]3)c1S2)c1ccnc(Cl)n1` (centres unmarked) [Example 1-12-81, 6-(7-((1-(2-Chloropyrimidin-4-yl)ethyl)amino)thianthren-1-yl)-4-morpholino pyridin-2 (1H)-one], the IC50 fell in the range of 100 to 500 nM. As for `O=c1cc(N2CCOCC2)cc(-c2cccc3c2Sc2ccc(NCc4cscn4)cc2S3)[nH]1` [Example 1-12-53, 4-Morpholino-6-(7-((thiazol-4-ylmethyl)amino)thianthren-1-yl)pyridin-2 (1H)-one], the IC50 was 100 to 500 nM. As for `Cc1cc(C(C)Nc2ccc3c(c2)Cc2cccc(-c4cc(N5CCOCC5)cc(=O)[nH]4)c2O3)ccn1` (centres unmarked) [Example 2-14-28, 6-(7-((1-(2-Methylpyridin-4-yl)ethyl)amino)-9H-xanthen-4-yl)-4-morpholino pyridin-2(1H)-one], the IC50 fell in the range of 100 to 500 nM.

`O=c1cc(N2CCOCC2)cc(-c2cccc3c2Sc2ccc(NCCN4CCSCC4)cc2S3)[nH]1` [Example 1-16-4, 4-Morpholino-6-(7-((2-thiomorpholinoethyl)amino)thianthren-1-yl)pyridin-2(1H)-one]: the IC50 is below 100 nM.
